In patent US8410302B2, “Methoxyimino compounds and fungicide composition comprising same” (Kyung Nong Corporation, priority 2007, dated 2013):

Tests used:
[1] = tested on: Pyricularia oryzae Carvara KA301; test: whole plant or invertebrate; format: in vivo; conditions: for RCB control value (C.V.): rice blast
[2] = tested on: Botrytis cinerae; test: Fungicidal activity against cucumber gray mold rot (CGM) disease, control value; format: in vivo; conditions: for pest or weed control at 50 ppm / pest or weed control at 100 ppm: Botrytis, read-out: CGM control value (C.V.)
[3] = tested on: Phytophthora infestans; test: whole plant or invertebrate; format: in vivo; conditions: for TLB control value (C.V.): tomato late blight
[4] = tested on: Puccinia recondita; test: Fungicidal activity against wheat leaf rust (WLR) disease, control value; format: in vivo; conditions: for WLR control value (C.V.): wheat leaf rust
[5] = tested on: Erysiphae graminis; test: Fungicidal activity against barley powdery mildew (BPM) disease, control value; format: in vivo; conditions: for BPM control value (C.V.): barley powdery mildew
[6] = tested on: Rhizoctonia solani AG-1; test: Fungicidal activity against rice sheath blight (RSB) disease, control value; conditions: for RSB control value (C.V.): rice sheath blight
[7] = Pyricularia oryzae, read-out: RCB control value (C.V.)
[8] = Phytophthora infestans, in Solanum lycopersicum, read-out: TLB control value (C.V.)
[9] = Puccinia recondita, 2 ppm, read-out: WLR control value (C.V.)
[10] = Puccinia recondita, 10 ppm, read-out: WLR control value (C.V.)
[11] = Puccinia recondita, 50 ppm, read-out: WLR control value (C.V.)
[12] = 168 h, 2 ppm, read-out: BPM control value (C.V.)
[13] = 168 h, 10 ppm, read-out: BPM control value (C.V.)
[14] = 168 h, 50 ppm, read-out: BPM control value (C.V.)
[15] = Rhizoctonia solani, AG1, in Oryza sativa, read-out: RSB control value (C.V.)
[16] = Puccinia recondita, 100 ppm, read-out: WLR control value (C.V.)
[17] = 168 h, 100 ppm, read-out: BPM control value (C.V.)

CO/N=C(/C(=O)OC)c1ccccc1COc1ccccc1C [Kresoxim-methyl, reference compound]
pest or weed control at 0.4 ppm [1, 7]: 30%
pest or weed control at 2 ppm [1, 7]: 60%
pest or weed control at 10 ppm [1, 7]: 95%
pest or weed control at 50 ppm [1, 7]: 100%
pest or weed control at 50 ppm [2]: 30%
pest or weed control at 0.4 ppm [3, 8]: 30%
pest or weed control at 2 ppm [3, 8]: 80%
pest or weed control at 10 ppm [3, 8]: 95%
pest or weed control at 50 ppm [3, 8]: 100%
pest or weed control at 0.4 ppm ([4]; Puccinia recondita, 0.4 ppm, read-out: WLR control value (C.V.)): 85%
pest or weed control at 2 ppm [4, 9]: 95%
pest or weed control at 10 ppm [4, 10]: 100%
pest or weed control at 50 ppm [4, 11]: 100%
pest or weed control at 0.4 ppm ([5]; 168 h, 0.4 ppm, read-out: BPM control value (C.V.)): 95%
pest or weed control at 2 ppm [5, 12]: 100%
pest or weed control at 10 ppm [5, 13]: 100%
pest or weed control at 50 ppm [5, 14]: 100%
pest or weed control at 0.4 ppm [6, 15]: 67%
pest or weed control at 2 ppm [6, 15]: 90%
pest or weed control at 10 ppm [6, 15]: 98%
pest or weed control at 50 ppm [6, 15]: 100%

CO/N=C(/C(=O)OC)c1ccccc1COc1cc(Br)ccc1C=C(Br)Br [Example 85, methyl-(E)-2-(2-((5-bromo-2-(2,2-dibromovinyl)phenoxy)methyl)phenyl)-2-methoxyiminoacetate]
pest or weed control at 2 ppm [1, 7]: 70%
pest or weed control at 10 ppm [1, 7]: 90%
pest or weed control at 50 ppm [1, 7]: 100%
pest or weed control at 100 ppm [1, 7]: 100%
pest or weed control at 100 ppm ([2]; 100 ppm): 35%
pest or weed control at 10 ppm [3, 8]: 20%
pest or weed control at 50 ppm [3, 8]: 100%
pest or weed control at 100 ppm [3, 8]: 100%
pest or weed control at 2 ppm [4, 9]: 80%
pest or weed control at 10 ppm [4, 10]: 99%
pest or weed control at 50 ppm [4, 11]: 100%
pest or weed control at 100 ppm [4, 16]: 100%
pest or weed control at 2 ppm [5, 12]: 25%
pest or weed control at 10 ppm [5, 13]: 70%
pest or weed control at 50 ppm [5, 14]: 97%
pest or weed control at 100 ppm [5, 17]: 100%
pest or weed control at 2 ppm [6, 15]: 60%
pest or weed control at 10 ppm [6, 15]: 85%
pest or weed control at 50 ppm [6, 15]: 96%
pest or weed control at 100 ppm [6, 15]: 99%

CO/N=C(/C(=O)OC)c1ccccc1CON=C(C)c1ccc(C=C(Br)Br)cc1 [Example 25, methyl-(E)-2-[[[[[2-[4-(2,2-dibromovinyl)phenyl](1-methyl)methylidene]amino]oxy]methyl]phenyl]-2-methoxyiminoacetate]
RCB control value (C.V.) ([1]; 2 ppm): 100%
RCB control value (C.V.) ([1]; 10 ppm): 100%
RCB control value (C.V.) ([1]; 50 ppm): 100%
RCB control value (C.V.) ([1]; 100 ppm): 100%
CGM control value (C.V.) ([2]; 100 ppm, cucumber gray mold rot): 35%
TLB control value (C.V.) ([3]; 2 ppm): 93%
TLB control value (C.V.) ([3]; 10 ppm): 100%
TLB control value (C.V.) ([3]; 50 ppm): 100%
TLB control value (C.V.) ([3]; 100 ppm): 100%
WLR control value (C.V.) ([4]; 2 ppm): 100%
WLR control value (C.V.) ([4]; 10 ppm): 100%
WLR control value (C.V.) ([4]; 50 ppm): 100%
WLR control value (C.V.) ([4]; 100 ppm): 100%
BPM control value (C.V.) ([5]; 2 ppm): 100%
BPM control value (C.V.) ([5]; 10 ppm): 100%
BPM control value (C.V.) ([5]; 50 ppm): 100%
BPM control value (C.V.) ([5]; 100 ppm): 100%
RSB control value (C.V.) ([6]; 2 ppm): 90%
RSB control value (C.V.) ([6]; 10 ppm): 98%
RSB control value (C.V.) ([6]; 50 ppm): 100%
RSB control value (C.V.) ([6]; 100 ppm): 100%

CO/N=C(/C(=O)OC)c1ccccc1COc1ccc(F)cc1C=C(Cl)Cl [Example 55, methyl-(E)-2-(2-((2-(2,2-dichlorovinyl)-4-fluorophenoxy)methyl)phenyl)-2-methoxyiminoacetate]
pest or weed control at 2 ppm [1, 7]: 100%
pest or weed control at 10 ppm [1, 7]: 100%
pest or weed control at 50 ppm [1, 7]: 100%
pest or weed control at 100 ppm [1, 7]: 100%
pest or weed control at 50 ppm [2]: 25%
pest or weed control at 100 ppm ([2]; 100 ppm): 75%
pest or weed control at 2 ppm [3, 8]: 99%
pest or weed control at 10 ppm [3, 8]: 100%
pest or weed control at 50 ppm [3, 8]: 100%
pest or weed control at 100 ppm [3, 8]: 100%
pest or weed control at 2 ppm [4, 9]: 100%
pest or weed control at 10 ppm [4, 10]: 100%
pest or weed control at 50 ppm [4, 11]: 100%
pest or weed control at 100 ppm [4, 16]: 100%
pest or weed control at 2 ppm [5, 12]: 100%
pest or weed control at 10 ppm [5, 13]: 100%
pest or weed control at 50 ppm [5, 14]: 100%
pest or weed control at 100 ppm [5, 17]: 100%
pest or weed control at 2 ppm [6, 15]: 90%
pest or weed control at 10 ppm [6, 15]: 100%
pest or weed control at 50 ppm [6, 15]: 100%
pest or weed control at 100 ppm [6, 15]: 100%
